Test results published in patent US20210395210A1, “INHIBITION OF BACTERIAL CHAPERONIN SYSTEMS” (THE TRUSTEES OF INDIANA UNIVERSITY, priority 2018, published 2021).
Where two headings read alike, the source gives them in different places.

Target: T1, E. coli GroEL/ES (Escherichia coli, UniProt P0A6F5)
T1 construct: made in house; host or cells: GroEL in E. coli DH5α; GroES in E. coli BL21 (DE3)
Assay: GroEL/ES-mediated dMDH refolding assay
Assay type: biochemical
Conditions: for log(IC50) GroEL/ES-dMDH Refolding: log of IC50 (μM scale), with standard deviation; for selectivity for E. coli GroEL/ES over human HSP60/10 (in words): GroEL/ES-dMDH vs HSP60/10-dMDH IC50; for inhibition in the GroEL/ES-mediated refolding assays (in words): dMDH and dRho refolding assays
Procedure: Reagent preparation: For these assays, four primary reagent stocks were prepared: 1) GroEUES-dMDH or HSP60/10-dMDH binary complex stock; 2) ATP initiation stock; 3) EDTA quench stock; 4) MDH enzymatic assay stock. Denatured MDH (dMDH) was prepared by 2-fold dilution of MDH (5 mg/ml, soluble pig heart MDH from Roche, product #10127248001) with denaturant buffer (7 M guanidine-HCl, 200 mM Tris, pH 7.4, and 50 mM DTT). MDH was completely denatured by incubating at room temperature for 45 min. The binary complex solutions were prepared by slowly adding the dMDH stock to a stirring stock with GroEL (or HSP60) in folding buffer (50 mM Tris-HCl, pH 7.4, 50 mM KCl, 10 mM MgCl2, and 1 mM DTT), followed by addition of GroES (or HSP10). The binary complex stocks were prepared immediately prior to dispensing into the assay plates and had final protein concentrations of 83.3 nM GroEL (Mr 800 kDa) or HSP60 (Mr 400 kDa), 100 nM GroES or HSP10 (Mr 70 kDa), and 20 nM dMDH in folding buffer. For the ATP initiation stock, ATP solid was diluted into folding buffer to a final concentration of 2.5 mM. Quench solution contained 600 mM EDTA (pH 8.0). The MDH enzymatic assay stock consisted of 20 mM sodium mesoxalate and 2.4 mM NADH in reaction buffer (50 mM Tris-HCl, pH 7.4, 50 mM KCl, and 1 mM DTT).
Assay Protocol: First, 30 μL aliquots of the GroEL/ES-dMDH or HSP60/10-dMDH binary complex stocks were dispensed into clear, 384-well polystyrene plates. […] The chaperonin-mediated refolding cycles were initiated by addition of 20 μL of ATP stock (reagent concentrations during refolding cycle: 50 nM GroEL or HSP60, 60 nM GroES or HSP10, 12 nM dMDH, 1 mM ATP, and compounds of 100 μM to 46 nM, 3-fold dilution series). The refolding reactions were incubated at 37° C. […] Next, the assay was quenched by addition of 10 μL of the EDTA to final concentration of 100 mM. […] A340 nm measurements were recorded at 0.5 minutes (start point) and at successive time points until the amount of NADH consumed reached ˜90% (end point, generally between 20-35 minutes). The differences between the start and end point A340 values were used to calculate the % inhibition of the GroEL/ES or HSP60/10 machinery by the compounds. […] Results presented represent the averages of IC50 values obtained from at least quadriplicate (duplicate of duplicate) replicates.
After generating the compound library, we next employed a series of well-established biochemical assays to evaluate compound inhibitory effects against the GroEUES chaperonin system (See FIG. 6 and FIG. 7). We used E. coli GroEUES as the surrogate chaperonin system for refolding of the reporter enzymes malate dehydrogenase (MDH) and rhodanese (Rho). Briefly, binary complexes are formed between GroEL and denatured MDH or Rho, which are then refolded to their native states upon addition of ATP and the GroES co-chaperonin. Enzymatic activities of refolded native MDH or Rho act as coupled reporters of GroEUES refolding functions since in the presence of chaperonin inhibitors, no functional reporter enzymes are generated.

[1] = read-out: Biochemical Assay IC50 GroEL/ES-dMDH refolding

T1 sequence (P0A6F5 2-548): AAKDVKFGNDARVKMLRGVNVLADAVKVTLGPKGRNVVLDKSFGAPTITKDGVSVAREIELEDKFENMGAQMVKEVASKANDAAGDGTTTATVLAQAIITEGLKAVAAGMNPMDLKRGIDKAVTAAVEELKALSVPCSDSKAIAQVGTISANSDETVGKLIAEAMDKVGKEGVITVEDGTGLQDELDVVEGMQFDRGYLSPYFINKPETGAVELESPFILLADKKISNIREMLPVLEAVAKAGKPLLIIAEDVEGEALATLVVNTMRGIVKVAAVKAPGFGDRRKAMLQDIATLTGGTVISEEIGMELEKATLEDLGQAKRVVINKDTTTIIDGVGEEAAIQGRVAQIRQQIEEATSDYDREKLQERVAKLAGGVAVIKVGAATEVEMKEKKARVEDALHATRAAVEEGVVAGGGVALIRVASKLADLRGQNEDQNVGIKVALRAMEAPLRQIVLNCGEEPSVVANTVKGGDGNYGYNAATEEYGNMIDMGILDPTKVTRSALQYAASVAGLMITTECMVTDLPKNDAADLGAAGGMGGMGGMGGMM

`O=C(Nc1ccc(Sc2nc3ccccc3s2)c(Cl)c1)c1cccc(Br)c1` [Compound 18, N-(4-(Benzo[d]thiazol-2-ylthio)-3-chlorophenyl)-3-bromobenzamide] gave an IC50 of over 100 µM.
In the case of `COc1ccc(Br)cc1C(=O)Nc1cccc(Cl)c1` [Compound 39, 5-Bromo-N-(3-chlorophenyl)-2-methoxybenzamide], the IC50 is reported as over 100 µM and the “log(IC50) GroEL/ES-dMDH Refolding” value is reported as over 2.
`COc1c(Br)cc(Br)cc1C(=O)Nc1ccc(Sc2nc3ccccc3s2)c(Cl)c1` [Compound 29, N-(4-(Benzo[d]thiazol-2-ylthio)-3-chlorophenyl)-3,5-dibromo-2-methoxybenzamide] was tested, and the IC50 was over 100 µM.
With `O=C(Nc1ccccc1)c1cccc(Br)c1O` [Compound 14, 3-Bromo-2-hydroxy-N-phenylbenzamide] the IC50 was over 100 µM and the “log(IC50) GroEL/ES-dMDH Refolding” value was over 2.
For `O=C(Nc1cccc(Cl)c1)c1cccc(Br)c1` [Compound 24, 3-Bromo-N-(3-chlorophenyl)benzamide], the IC50 was over 100 µM and the “log(IC50) GroEL/ES-dMDH Refolding” value was over 2.
With `COc1ccccc1C(=O)Nc1cccc(Cl)c1` [Compound 40, N-(3-Chlorophenyl)-2-methoxybenzamide] the IC50 was over 100 µM and the “log(IC50) GroEL/ES-dMDH Refolding” value was over 2.
`COc1c(Br)cc(Br)cc1C(=O)Nc1ccc(Sc2nc3ccccc3s2)cc1` [Compound 33, N-(4-(Benzo[d]thiazol-2-ylthio)phenyl)-3,5-dibromo-2-methoxybenzamide] gave an IC50 of over 100 µM.
With `O=C(Nc1ccc(Sc2nc3ccccc3s2)c(Cl)c1)c1cc(Br)ccc1O` [Compound 3, N-(4-(Benzo[d]thiazol-2-ylthio)-3-chlorophenyl)-5-bromo-2-hydroxybenzamide] the “selectivity for E. coli GroEL/ES over human HSP60/10 (in words)” value (“selectivity for E. coli GroEL/ES” for short) was “selectively inhibit E. coli GroEUES over human HSP60/10”, the “inhibition in the GroEL/ES-mediated refolding assays (in words)” value was “moderate to potent inhibitors” and the “log(IC50) GroEL/ES-dMDH Refolding” value was 1.57 ± 0.35. It also gave an IC50 [1] of 37 µM.
In the case of `O=C(Nc1ccc(Sc2nc3ccccc3s2)cc1)c1cc(Br)ccc1O` [Compound 7, N-(4-(Benzo[d]thiazol-2-ylthio)phenyl)-5-bromo-2-hydroxybenzamide], the “selectivity for E. coli GroEL/ES” value is reported as “selectively inhibit E. coli GroEUES over human HSP60/10”, the “inhibition in the GroEL/ES-mediated refolding assays (in words)” value is reported as “moderate to potent inhibitors” and the “log(IC50) GroEL/ES-dMDH Refolding” value is reported as 1.58 ± 0.34. For the same molecule, the IC50 [1] was 38 µM.
For `O=C(Nc1cccc(Cl)c1)c1cc(Br)cc(Br)c1` [Compound 23, 3,5-Dibromo-N-(3-chlorophenyl)benzamide], the IC50 was over 100 µM and the “log(IC50) GroEL/ES-dMDH Refolding” value was over 2.
With `COc1ccc(Br)cc1C(=O)Nc1ccccc1` [Compound 43, 5-Bromo-2-methoxy-N-phenylbenzamide] the IC50 was over 100 µM and the “log(IC50) GroEL/ES-dMDH Refolding” value was over 2.
`O=C(Nc1ccc(Sc2nc3ccccc3s2)cc1)c1cc(Br)cc(Br)c1` [Compound 20, N-(4-(Benzo[d]thiazol-2-ylthio)phenyl)-3,5-dibromobenzamide] was tested, and the IC50 was over 100 µM.
With `COc1c(Br)cc(Br)cc1C(=O)Nc1ccccc1` [Compound 41, 3,5-Dibromo-2-methoxy-N-phenylbenzamide] the IC50 was over 100 µM and the “log(IC50) GroEL/ES-dMDH Refolding” value was over 2.
`O=C(Nc1ccccc1)c1cc(Br)ccc1O` [Compound 15, 5-Bromo-2-hydroxy-N-phenylbenzamide] was tested, and the IC50 was over 100 µM and the “log(IC50) GroEL/ES-dMDH Refolding” value was over 2.
`COc1c(Br)cc(Br)cc1C(=O)Nc1cccc(Cl)c1` [Compound 37, 3,5-Dibromo-N-(3-chlorophenyl)-2-methoxybenzamide] was tested, and the IC50 was over 100 µM and the “log(IC50) GroEL/ES-dMDH Refolding” value was over 2.
With `COc1c(Br)cccc1C(=O)Nc1cccc(Cl)c1` [Compound 38] the IC50 was over 100 µM and the “log(IC50) GroEL/ES-dMDH Refolding” value was over 2.
In the case of `O=C(Nc1ccccc1)c1cc(Br)cc(Br)c1` [Compound 26, 3,5-Dibromo-N-phenylbenzamide], the IC50 is reported as over 100 µM and the “log(IC50) GroEL/ES-dMDH Refolding” value is reported as over 2.
For `O=C(Nc1ccc(Sc2nc3ccccc3s2)c(Cl)c1)c1cc(Br)cc(Br)c1` [Compound 17, N-(4-(Benzo[d]thiazol-2-ylthio)-3-chlorophenyl)-3,5-dibromobenzamide], the IC50 was over 100 µM.
Work on `O=C(Nc1ccc(Sc2nc3ccccc3s2)cc1)c1ccccc1` [Compound 22, N-(4-(Benzo[d]thiazol-2-ylthio)phenyl)benzamide] yielded an IC50 of over 100 µM.
For `O=C(Nc1ccccc1)c1cccc(Br)c1` [Compound 27, 3-Bromo-N-phenylbenzamide], the IC50 was over 100 µM and the “log(IC50) GroEL/ES-dMDH Refolding” value was over 2.
Molecule `O=C(Nc1ccc(Sc2nc3ccccc3s2)cc1)c1cccc(Br)c1` [Compound 21, N-(4-(Benzo[d]thiazol-2-ylthio)phenyl)-3-bromobenzamide] has an IC50 of over 100 µM.
`COc1ccc(Br)cc1C(=O)Nc1ccc(Sc2nc3ccccc3s2)cc1` [Compound 35, N-(4-(Benzo[d]thiazol-2-ylthio)phenyl)-5-bromo-2-methoxybenzamide] showed an IC50 of over 100 µM.
`COc1ccccc1C(=O)Nc1ccccc1` [Compound 44, 2-Methoxy-N-phenylbenzamide] was tested, and the IC50 was over 100 µM and the “log(IC50) GroEL/ES-dMDH Refolding” value was over 2.
Molecule `COc1ccc(Br)cc1C(=O)Nc1ccc(Sc2nc3ccccc3s2)c(Cl)c1` [Compound 31, N-(4-(Benzo[d]thiazol-2-ylthio)-3-chlorophenyl)-5-bromo-2-methoxybenzamide] has an IC50 of over 100 µM.
`COc1ccccc1C(=O)Nc1ccc(Sc2nc3ccccc3s2)c(Cl)c1` [Compound 32, N-(4-(Benzo[d]thiazol-2-ylthio)-3-chlorophenyl)-2-methoxybenzamide] showed an IC50 of over 100 µM.
`COc1ccccc1C(=O)Nc1ccc(Sc2nc3ccccc3s2)cc1` [Compound 36, N-(4-(Benzo[d]thiazol-2-ylthio)phenyl)-2-methoxybenzamide] showed an IC50 of over 100 µM.
For `O=C(Nc1ccc(Sc2nc3ccccc3s2)c(Cl)c1)c1ccccc1` [Compound 19, N-(4-(Benzo[d]thiazol-2-ylthio)-3-chlorophenyl)benzamide], the IC50 was over 100 µM.
For `O=C(Nc1ccc(Sc2nc3ccccc3s2)c(Cl)c1)c1ccccc1O` [Compound 4, N-(4-(Benzo[d]thiazol-2-ylthio)-3-chlorophenyl)-2-hydroxybenzamide], the “selectivity for E. coli GroEL/ES” value was “selectively inhibit E. coli GroEUES over human HSP60/10”, the “log(IC50) GroEL/ES-dMDH Refolding” value was 1.62 ± 0.32 and the IC50 [1] was 42 µM.
`O=C(Nc1cccc(Cl)c1)c1ccccc1O` [Compound 12, N-(3-Chlorophenyl)-2-hydroxybenzamide] was tested, and the IC50 was over 100 µM and the “log(IC50) GroEL/ES-dMDH Refolding” value was over 2.
`O=C(Nc1ccc(Sc2nc3ccccc3s2)cc1)c1cccc(Br)c1O` [Compound 6, N-(4-(Benzo[d]thiazol-2-ylthio)phenyl)-3-bromo-2-hydroxybenzamide] was tested, and the “inhibition in the GroEL/ES-mediated refolding assays (in words)” value was “moderate to potent inhibitors”, the “log(IC50) GroEL/ES-dMDH Refolding” value was 1.52 ± 0.21 and the IC50 [1] was 33 µM.
`COc1c(Br)cccc1C(=O)Nc1ccc(Sc2nc3ccccc3s2)c(Cl)c1` [Compound 30, N-(4-(Benzo[d]thiazol-2-ylthio)-3-chlorophenyl)-3-bromo-2-methoxybenzamide] showed an IC50 of over 100 µM.
With `O=C(Nc1cccc(Cl)c1)c1ccccc1` [Compound 25, N-(3-Chlorophenyl)benzamide] the IC50 was over 100 µM and the “log(IC50) GroEL/ES-dMDH Refolding” value was over 2.
For `COc1c(Br)cccc1C(=O)Nc1ccccc1` [Compound 42, 3-Bromo-2-methoxy-N-phenylbenzamide], the IC50 was over 100 µM and the “log(IC50) GroEL/ES-dMDH Refolding” value was over 2.
